Reference: the NIST ThermoML archive (doi:10.1021/acs.jced.7b00836)
± gives the expanded uncertainty stated by the source.

Details: Liquid, Closed cell (Static) method

SMILES: CCCCC [pentane]
- vapor or sublimation pressure (288.25 K): 48 ± 4 kPa
- vapor or sublimation pressure (296.24 K): 66 ± 4 kPa

SMILES: CCCCCC [hexane]
- vapor or sublimation pressure (288.24 K): 17 ± 4 kPa
- vapor or sublimation pressure (296.23 K): 21 ± 4 kPa
